This is an account of results in patent publication US10543212B2, “Substituted amines for treating cardiac diseases” (Cardurion Pharmaceuticals, LLC, priority 2017, dated 2020).

The target of the assay is T1, Human full-length CaMKIIδ (Homo sapiens, UniProt Q13557).
T1 construct: Human full-length CaMKIIδ (Cat #02-111) was obtained from Carna Biosciences; GST; purchased Carna Biosciences 02-111
The assay is described as follows: Human CaMKII enzyme inhibition assay (radiometric kinase assay). Particulars: 3 μM compound; 500 nM ATP; 0.5 nM CaMKIIδ; read-out: CaMKIIδ inhibitory activity (%) at 3 μM. It is filed as biochemical. As to the method:
In Vitro CaMKIIδ Inhibitory Activity was Evaluated by an Enzyme Assay.
Human CaMKII Enzyme Inhibition Assay
Kinase assay for CaMKIIs was performed using the radiometric assay. Human full-length CaMKIIδ (Cat #02-111) was obtained from Carna Biosciences (Kobe, Japan).
Enzyme reactions were performed in 25 mM HEPES, pH 7.5, with 5 mM magnesium chloride, 1 mM calcium chloride, 10 μg/mL Calmodulin, 2 mM DTT, 0.01% Tween20 and 500 nM ATP (0.2 μCi/well of [γ-33P] ATP) containing 0.5 nM CaMKIIδ and 0.1 μM autophosphorylation peptide (KKALRRQETVDAL)(Toray Research Center).
After incubating the enzyme, peptide, and compounds for 5 min, kinase reactions were initiated by adding ATP, followed by incubation for 60 min at room temperature in a total volume of 50 μL. The reactions were terminated by the addition of 10% trichloroacetic acid (final concentration). The [γ-33P]-phosphorylated proteins were filtered in a Harvest Plate (Merck Millipore) with a Cell Harvester (PerkinElmer) and then free [γ-33P] ATP was washed out with 3% phosphoric acid. The plates were dried, followed by the addition of 40 μl of MicroScintO (PerkinElmer). The radioactivity was counted by a TopCount scintillation counter (PerkinElmer). The signals of the reaction without enzyme were defined as 100% inhibitory activity and those of the reaction without inhibitors as 0% inhibitory activity. In vitro CaMKIIδ inhibitory activity was evaluated by % inhibitory activity of 3 μM compound concentration.
As to `COc1cc(C(=O)N2CC3(CN(C)C3)C2)ccc1Nc1ncc(-c2ccc(C#N)c(O[C@@H](C)Cn3cnnn3)c2)cn1` [Example 172, 4-(2-((2-methoxy-4-((6-methyl-2,6-diazaspiro[3.3]hept-2-yl)carbonyl)phenyl)ami-no)pyrimidin-5-yl)-2-(((2S)-1-(1H-tetrazol-1-yl)propan-2-yl)oxy)benzonitrile], the inhibition at 3 µM amounted to 100%.
As to `COc1cc(N2CCC(N3CCOCC3)CC2)ccc1Nc1ncc(-c2ccc(Cl)c(O[C@@H](C)Cn3ccnc3)c2)cn1` [Example 58, 5-(4-chloro-3-(((2S)-1-(1H-imidazol-1-yl)propan-2-yl)oxy)phenyl)-N-(2-methoxy-4-(4-(morpholin-4-yl)piperidin-1-yl)phenyl)pyrimidin-2-amine], the inhibition at 3 µM amounted to 99%.
In the case of `COc1ccc(N2CCC(N3CCOCC3)CC2)cc1Nc1ncc(-c2ccc(Cl)c(O[C@@H](C)Cn3cnnn3)c2)cn1` [Example 214, 5-(4-chloro-3-(((2S)-1-(1H-tetrazol-1-yl)propan-2-yl)oxy)phenyl)-N-(2-methoxy-5-(4-(morpholin-4-yl)piperidin-1-yl)phenyl)pyrimidin-2-amine] it was 100%; in that of `C[C@@H](Cn1cncn1)Oc1cc(-c2cnc(Nc3cnn(CC(C)(C)C#N)c3)nc2)ccc1C#N` [Example 365, 4-(2-((1-(2-cyano-2-methylpropyl)-1H-pyrazol-4-yl)amino)pyrimidin-5-yl)-2-(((2S)-1-(1H-1,2,4-triazol-1-yl)propan-2-yl)oxy)benzonitrile], 98%; in that of `COc1nn(C)cc1Nc1ncc(-c2ccc(C#N)c(O[C@@H](C)Cn3cncn3)c2)cn1` [Example 375, 4-(2-((3-methoxy-1-methyl-1H-pyrazol-4-yl)amino)pyrimidin-5-yl)-2-(((2S)-1-(1H-1,2,4-triazol-1-yl)propan-2-yl)oxy)benzonitrile], 97%.
For `COc1cc(C(=O)N2CCN(C)CC2)ccc1Nc1ncc(-c2ccc(C#N)c(O[C@@H](C)Cn3cncn3)c2)cn1` [Example 73, 4-(2-((2-methoxy-4-((4-methylpiperazin-1-yl)car-bonyl)phenyl)amino)pyrimidin-5-yl)-2-(((2S)-1-(1H-1,2,4-triazol-1-yl)propan-2-yl)oxy)benzonitrile] the value was 97%; for `C[C@@H](O)Cn1cc(Nc2ncc(-c3ccc(C#N)c(O[C@@H](C)Cn4cncn4)c3)cn2)cn1` [Example 416, 4-(2-((1-((2R)-2-hydroxypropyl)-1H-pyrazol-4-yl)amino)pyrimidin-5-yl)-2-(((2S)-1-(1H-1,2,4-triazol-1-yl)propan-2-yl)oxy)benzonitrile], 98%.
On to `C[C@@H](Cn1cncn1)Oc1cc(-c2cnc(Nc3cnn(C4CC4)c3)nc2)ccc1C#N` [Example 361, 4-(2-((1-cyclopropyl-1H-pyrazol-4-yl)amino)pyrimidin-5-yl)-2-(((2S)-1-(1H-1,2,4-triazol-1-yl)propan-2-yl)oxy)benzonitrile], for which the inhibition at 3 µM turned out to be 98%.
Consider `COc1cc(N2CCC(N3CCOCC3)CC2)ccc1Nc1ncc(-c2ccc(C#N)c(O[C@@H](C)Cn3ncnn3)c2)cn1` [Example 5, 4-(2-((2-methoxy-4-(4-(morpholin-4-yl)piperidin-1-yl)phenyl)amino)pyrimidin-5-yl)-2-(((2S)-1-(2H-tetrazol-2-yl)propan-2-yl)oxy)benzonitrile], for which the inhibition at 3 µM came to 98%.
In the case of `Cc1nn(C)cc1Nc1ncc(-c2ccc(C#N)c(O[C@@H](C)Cn3cncn3)c2)cn1` [Example 357, 4-(2-((1,3-dimethyl-1H-pyrazol-4-yl)amino)pyrimidin-5-yl)-2-(((2S)-1-(1H-1,2,4-triazol-1-yl)propan-2-yl)oxy)benzonitrile] it was 96%; in that of `C[C@@H](Cn1cncn1)Oc1cc(-c2cnc(Nc3cnn(C(C)(C)C)c3)nc2)ccc1C#N` [Example 373, 4-(2-((1-tert-butyl-1H-pyrazol-4-yl)amino)pyrimidin-5-yl)-2-(((2S)-1-(1H-1,2,4-triazol-1-yl)propan-2-yl)oxy)benzonitrile], 98%; in that of `Cc1nn(C)cc1Nc1ncc(-c2ccc(C#N)c(O[C@@H](C)Cn3cnnn3)c2)cn1` [Example 372, 4-(2-((1,3-dimethyl-1H-pyrazol-4-yl)amino)pyrimidin-5-yl)-2-(((2S)-1-(1H-tetrazol-1-yl)propan-2-yl)oxy)benzonitrile], 98%.
In the case of `Cn1cc(Nc2ncc(-c3ccc(C#N)c(O[C@@H](CO)Cn4cccn4)c3)cn2)cn1` [Example 402, 2-(((2R)-1-hydroxy-3-(1H-pyrazol-1-yl)propan-2-yl)oxy)-4-(2-((1-methyl-1H-pyrazol-4-yl)amino)pyrimidin-5-yl)benzonitrile] it was 82%; in that of `C[C@@H](Cn1cncn1)Oc1cc(-c2cnc(Nc3cnn(CC(F)(F)F)c3)nc2)ccc1C#N` [Example 362, 2-(((2S)-1-(1H-1,2,4-triazol-1-yl)propan-2-yl)oxy)-4-(2-((1-(2,2,2-trifluoroethyl)-1H-pyrazol-4-yl)amino)pyrimidin-5-yl)benzonitrile], 97%.
In the case of `COc1cc(C2CCN(C3COC3)CC2)ccc1Nc1ncc(-c2ccc(Cl)c(O[C@@H](C)Cn3cnnn3)c2)cn1` [Example 206, 5-(4-chloro-3-(((2S)-1-(1H-tetrazol-1-yl)propan-2-yl)oxy)phenyl)-N-(2-methoxy-4-(1-(oxetan-3-yl)piperidin-4-yl)phenyl)pyrimidin-2-amine] it was 99%; in that of `CC(C)n1cc(Nc2ncc(-c3ccc(C#N)c(O[C@@H](C)Cn4cnnn4)c3)cn2)cn1` [Example 374, 4-(2-((1-isopropyl-1H-pyrazol-4-yl)amino)pyrimidin-5-yl)-2-(((2S)-1-(1H-tetrazol-1-yl)propan-2-yl)oxy)benzonitrile], 97%.
Consider `COc1cc(N2CCC(N3CCOCC3)CC2)ccc1Nc1ncc(-c2ccc(C#N)c(O[C@@H](C)Cn3ccnc3)c2)cn1` [Example 39, 2-(((2S)-1-(1H-imidazol-1-yl)propan-2-yl)oxy)-4-(2-((2-methoxy-4-(4-(morpholin-4-yl)piperidin-1-yl)phenyl)amino)pyrimidin-5-yl)benzonitrile], for which the inhibition at 3 µM was 98%.
For `COc1cc(N2CCC(N3C[C@H]4CC[C@@H](C3)O4)CC2)ccc1Nc1ncc(-c2ccc(Cl)c(O[C@@H](C)Cn3cnnn3)c2)cn1` [Example 213, 5-(4-chloro-3-(((2S)-1-(1H-tetrazol-1-yl)propan-2-yl)oxy)phenyl)-N-(2-methoxy-4-(4-((1R,5S)-8-oxa-3-azabicyclo[3.2.1]oct-3-yl)piperidin-1-yl)phenyl)pyrimidin-2-amine] the value was 100%; for `COc1cc(C(=O)N2CCC(OC)CC2)ccc1Nc1ncc(-c2ccc(C#N)c(O[C@@H](C)Cn3cnnn3)c2)cn1` [Example 152, 4-(2-((2-methoxy-4-((4-methoxypiperidin-1-yl)carbonyl)phenyl)ami-no)pyrimidin-5-yl)-2-(((2S)-1-(1H-tetrazol-1-yl)propan-2-yl)oxy)benzonitrile], 98%; for `C[C@@H](Cn1cnnn1)Oc1cc(-c2cnc(Nc3cnn(C)c3)nc2)ccc1C#N` [Example 410, 4-(2-((1-methyl-1H-pyrazol-4-yl)amino)pyrimidin-5-yl)-2-(((2S)-1-(1H-tetrazol-1-yl)propan-2-yl)oxy)benzonitrile], 99%.
